We go through 56 compounds from patent US11279714B2, “Anti-infective compounds” (priority 2014, dated 2022).

Values after ≈ are worked out from the molar mass of the structure shown. Bounds are passed on as bounds.

Assay [1] relates to M. tuberculosis H37Rv expressing the green fluorescent protein (H37Rv-GFP). In words: microbe, parasite or virus in culture. In kind it is cell-based. Conditions: for MIC50: Mycobacterium tuberculosis, H37RV, 120 h, read-out: QUM (MIC50).
Assay [2] concerns Raw 264.7 cells infected with H37Rv-GFP. In words: microbe, parasite or virus in culture. In kind it is cell-based, M. tuberculosis. Conditions: for MIC50: Mycobacterium tuberculosis, H37RV, 120 h, read-out: QIM (MIC50).

For the compound `CN(C)C(=O)CC1CCN(c2nc3sc(C(=O)Nc4ccc(F)cc4)cc3s2)C1` (stereo not shown) [Compound 332], the MIC50 in assay [1] and in assay [2] was < 1 µM throughout.

For `CC1CCN(c2ccc(NC(=O)c3cc4sc(NCCOc5ccc(Cl)cc5)nc4s3)cc2)CC1` [Compound 347], the MIC50 in assay [1] and in assay [2] was > 20 µM each time.

Turning to `Cc1ccc(-c2ccc(NC(=O)c3cc4sc(NCCN5CCOCC5)nc4s3)cc2)nc1` [Compound 260], the MIC50 was 1 to 20 µM (≈ 0.48 to 9.59 µg/mL) in assay [1] and < 1 µM in assay [2].

Take `Cc1nc2cc(NC(=O)c3cc4sc(NCCCN5CCOCC5)nc4s3)ccc2o1` [Compound 296]: the MIC50 is 1 to 20 µM (≈ 0.458 to 9.15 µg/mL) in assay [1] and < 1 µM in assay [2].

In the case of `O=C(Nc1ccc(Oc2ccc(Cl)cc2)cc1)c1cc2sc(N3CCNCC3)nc2s1` [Compound 345], the MIC50 was 1 to 20 µM (≈ 0.471 to 9.42 µg/mL) in assay [1] and < 1 µM in assay [2].

As to `O=C(O)c1ccc(NC(=O)c2cc3nc(N4CCCCC4)sc3s2)cc1` [Compound 19], the MIC50 was 1 to 20 µM (≈ 0.387 to 7.75 µg/mL) in assay [1] and > 20 µM in assay [2].

Take `O=C(Nc1ccc(F)cc1)c1cc2sc(NC3CCCN(c4ccc(F)cc4)C3)nc2s1` (stereo not shown) [Compound 318]: the MIC50 in assay [1] is > 20 µM; in assay [2] it was < 1 µM.

For the compound `CN1CCCC(Nc2nc3sc(C(=O)Nc4ccc(F)cc4)cc3s2)C1` (stereo not shown) [Compound 311], the MIC50 in assay [1] is > 20 µM; in assay [2], 1 to 20 µM (≈ 0.391 to 7.81 µg/mL).

Consider `O=C(Nc1ccc(OCc2ccccc2)cc1)c1cc2sc(N3CCCCC3)nc2s1` [Compound 44], for which the MIC50 in assay [1] is > 20 µM; in assay [2], < 1 µM.

As to `Cc1ccc(-c2ccc(NC(=O)c3cc4sc(N5CCOCC5)nc4s3)cc2)nc1` [Compound 218], the MIC50 in assay [1] was > 20 µM; in assay [2], < 1 µM.

As for `O=C(Nc1ccc(-c2ccc(F)cn2)cc1)c1cc2sc(NCC(O)C(F)(F)F)nc2s1` (stereo not shown) [Compound 340], the MIC50 in assay [1] is 1 to 20 µM (≈ 0.482 to 9.65 µg/mL); in assay [2] it was < 1 µM.

In the case of `CN(CCO)c1nc2sc(C(=O)Nc3ccc(N4CCC(Oc5ccc(F)cc5)CC4)cc3)cc2s1` [Compound 250], the MIC50 in assay [1] was > 20 µM; in assay [2], < 1 µM.

On to `Cc1nc2cc(NC(=O)c3cc4sc(NCCN5CCN(C)CC5)nc4s3)ccc2o1` [Compound 326], for which the MIC50 in assay [1] and in assay [2] was > 20 µM in each case.

Turning to `COc1ccc(NC(=O)c2cc3sc(N4CCC(CO)CC4)nc3s2)cc1` [Compound 120], the MIC50 in assay [1] and in assay [2] was < 1 µM in each case.

Regarding `COc1ccc(CN2CCN(c3nc4sc(C(=O)Nc5ccc(OC)cc5)cc4s3)CC2)cc1` [Compound 91], the results for the MIC50 in assay [1] and in assay [2] were > 20 µM and < 1 µM, respectively.

For `Cn1ccc(-c2ccc(NC(=O)c3cc4sc(NCCN5CCOCC5)nc4s3)cc2)n1` [Compound 319], the figures for the MIC50 in assay [1] and in assay [2] were 1 to 20 µM (≈ 0.469 to 9.37 µg/mL) and < 1 µM, respectively.

As for `CN(C)C(=O)C1CCN(c2nc3sc(C(=O)Nc4ccc5oc(Cc6ccc(F)cc6)nc5c4)cc3s2)CC1` [Compound 219], the values for the MIC50 in assay [1] and in assay [2] were 1 to 20 µM (≈ 0.564 to 11.3 µg/mL) and < 1 µM, respectively.

On to `O=C(Nc1ccc(-c2ccc(F)nc2)cc1)c1cc2sc(NCCN3CCCCC3)nc2s1` [Compound 329], for which the MIC50 in assay [1] is 1 to 20 µM (≈ 0.482 to 9.63 µg/mL); in assay [2] it was < 1 µM.

As to `O=C(Nc1ccc(-c2ccc(F)nc2)cc1)c1cc2sc(NCCN3CCOCC3)nc2s1` [Compound 288], the MIC50 in assay [1] and in assay [2] was < 1 µM in each case.

Turning to `COc1ccc(NC(=O)c2cc3sc(N4CCC(O)CC4)nc3s2)cc1` [Compound 76], the MIC50 in assay [1] and in assay [2] was < 1 µM each time.

`O=C(Nc1ccc(F)cc1)c1cc2sc(NC3CCNCC3)nc2s1` [Compound 312]: the MIC50 in assay [1] and in assay [2] was > 20 µM in each case.

With `Cc1nc2cc(NC(=O)c3cc4sc(N5CCN(CCO)CC5)nc4s3)ccc2o1` [Compound 336], the MIC50 is 1 to 20 µM (≈ 0.444 to 8.87 µg/mL) in assay [1] and < 1 µM in assay [2].

Consider `CC(C)(C)OC(=O)N1CCN(c2nc3sc(C(=O)Nc4ccc(-c5ccc(F)cn5)cc4)cc3s2)CC1` [Compound 306], for which the MIC50 in assay [1] is > 20 µM; in assay [2] it was < 1 µM.

In the case of `O=C(O)c1ccc(NC(=O)c2cc3sc(N4CCCCC4)nc3s2)cc1` [Compound 51], the MIC50 in assay [1] and in assay [2] was 1 to 20 µM (≈ 0.387 to 7.75 µg/mL) in each case.

Turning to `CN(CCO)c1nc2sc(C(=O)Nc3ccc(-c4ccn(C)n4)cc3)cc2s1` [Compound 275], the MIC50 is 1 to 20 µM (≈ 0.414 to 8.27 µg/mL) in assay [1] and < 1 µM in assay [2].

Take `COc1ccc(CN(CCO)c2nc3sc(C(=O)Nc4ccc5oc(C)nc5c4)cc3s2)cc1` [Compound 248]: the values for the MIC50 in assay [1] and in assay [2] were 1 to 20 µM (≈ 0.495 to 9.89 µg/mL) and < 1 µM, respectively.

With `CN(C)C(=O)C1CCN(c2nc3sc(C(=O)Nc4ccc(-c5ccc(C(F)(F)F)nc5)cc4)cc3s2)CC1` [Compound 209], the MIC50 in assay [1] and in assay [2] was < 1 µM in each case.

Turning to `Cc1ccc(-c2ccc(NC(=O)c3cc4sc(N(C)C)nc4s3)cc2)cn1` [Compound 240], the values for the MIC50 in assay [1] and in assay [2] were > 20 µM and < 1 µM, respectively.

As for `O=C(Nc1ccc(-c2ccc(F)nc2)cc1)c1cc2sc(N3CCN(CCO)CC3)nc2s1` [Compound 337], the MIC50 in assay [1] and in assay [2] was < 1 µM in each case.

Regarding `O=C(Nc1ccc(F)cc1)c1cc2sc(NC3CCCNC3)nc2s1` (stereo not shown) [Compound 310], the MIC50 in assay [1] and in assay [2] was > 20 µM in each case.

For the compound `CNC(=O)C1CCN(c2nc3sc(C(=O)Nc4ccc5oc(C)nc5c4)cc3s2)CC1` [Compound 212], the MIC50 is 1 to 20 µM (≈ 0.456 to 9.11 µg/mL) in assay [1] and < 1 µM in assay [2].

`CN(CC(O)C(F)(F)F)c1nc2sc(C(=O)Nc3ccc(-c4ccc(F)nc4)cc3)cc2s1` (stereo not shown) [Compound 339]: the MIC50 in assay [1] and in assay [2] was < 1 µM each time.

In the case of `C#CCOc1ccc(-c2ccc(NC(=O)c3cc4sc(NCCN5CCOCC5)nc4s3)cc2)cc1` [Compound 359], the MIC50 in assay [1] is 1 to 20 µM (≈ 0.519 to 10.4 µg/mL); in assay [2] it was < 1 µM.

On to `O=C(Nc1ccc(-c2ccc(F)nc2)cc1)c1cc2sc(NCC(O)C(F)(F)F)nc2s1` (stereo not shown) [Compound 341], for which the figures for the MIC50 in assay [1] and in assay [2] were 1 to 20 µM (≈ 0.482 to 9.65 µg/mL) and < 1 µM, respectively.

For `CN(C)C(=O)CC1CCN(c2nc3sc(C(=O)Nc4ccc(-c5ccc(F)nc5)cc4)cc3s2)C1` (stereo not shown) [Compound 350], the MIC50 in assay [1] and in assay [2] was < 1 µM each time.

On to `O=C(Nc1ccc(N2CCC(Oc3ccc(Cl)cc3)CC2)cc1)c1cc2sc(N3CCOCC3)nc2s1` [Compound 193], for which the MIC50 in assay [1] was > 20 µM; in assay [2], < 1 µM.

Consider `COc1ccc(NC(=O)c2cc3sc(N4CCC(O)C4)nc3s2)cc1` (stereo not shown) [Compound 130], for which the MIC50 in assay [1] was 1 to 20 µM (≈ 0.375 to 7.51 µg/mL); in assay [2] it was < 1 µM.

As to `CN(C)C(=O)[C@H]1CCN(c2nc3sc(C(=O)Nc4ccc(-c5ccc(F)nc5)cc4)cc3s2)C1` [Compound 298], the MIC50 in assay [1] and in assay [2] was < 1 µM throughout.

With `Cc1nc2cc(NC(=O)c3cc4sc(N5CCC(N)CC5)nc4s3)ccc2o1` [Compound 234], the MIC50 was 1 to 20 µM (≈ 0.414 to 8.27 µg/mL) in assay [1] and < 1 µM in assay [2].

`Cc1nc2cc(NC(=O)c3cc4sc(N5CCN6CCCC6C5)nc4s3)ccc2o1` (stereo not shown) [Compound 323]: the MIC50 in assay [1] and in assay [2] was < 1 µM each time.

Regarding `CC(C)(C)CC(=O)NC1CCN(c2nc3sc(C(=O)Nc4ccc(F)cc4)cc3s2)CC1` [Compound 304], the MIC50 in assay [1] was > 20 µM; in assay [2], < 1 µM.

`O=C(Nc1ccc(F)cc1)c1cc2sc(NCCN3CCOCC3)nc2s1` [Compound 302]: the MIC50 in assay [1] was 1 to 20 µM (≈ 0.407 to 8.13 µg/mL); in assay [2], < 1 µM.

In the case of `Cc1nc2cc(NC(=O)c3cc4sc(NCCO)nc4s3)ccc2o1` [Compound 267], the MIC50 in assay [1] and in assay [2] was 1 to 20 µM (≈ 0.374 to 7.49 µg/mL) throughout.

Take `CC(C)(C)CC(=O)NC1CCN(c2nc3sc(C(=O)Nc4ccc(-c5ccc(F)nc5)cc4)cc3s2)CC1` [Compound 348]: the values for the MIC50 in assay [1] and in assay [2] were > 20 µM and < 1 µM, respectively.

On to `Cc1nc2cc(NC(=O)c3cc4sc(N5CC[C@@H](C(=O)Nc6ccc7nc(C)oc7c6)C5)nc4s3)ccc2o1` [Compound 222], for which the MIC50 in assay [1] was 1 to 20 µM (≈ 0.559 to 11.2 µg/mL); in assay [2] it was < 1 µM.

For the compound `COCCN(C)c1nc2sc(C(=O)Nc3ccc(-c4ccc(C)cn4)cc3)cc2s1` [Compound 262], the MIC50 in assay [1] and in assay [2] was < 1 µM throughout.

With `Cc1nc2cc(NC(=O)c3cc4sc(N5CC(C(=O)N(C)C)C5)nc4s3)ccc2o1` [Compound 244], the MIC50 in assay [1] was > 20 µM; in assay [2] it was < 1 µM.

As for `Cc1ccc(-c2ccc(NC(=O)c3cc4sc(N5CCC(C(=O)N(C)C)CC5)nc4s3)cc2)nc1.Cl` [Compound 258], the “QUM (MIC50, uM)” value in assay [1] is on record as “++ (++ indicates between 1-20 uM)”. The “QIM (MIC50, uM)” value in assay [2] is listed as “+++ (+++ indicates <1 uM)”.

Regarding `O=C(Nc1ccc(-c2ccc(F)nc2)cc1)c1cc2sc(NCCOc3ccc(Cl)cc3)nc2s1` [Compound 301], the MIC50 in assay [1] is > 20 µM; in assay [2], < 1 µM.

Turning to `COC(CN(C)c1nc2sc(C(=O)Nc3ccc4oc(C)nc4c3)cc2s1)C(F)(F)F` (stereo not shown) [Compound 263], the MIC50 in assay [1] and in assay [2] was > 20 µM in each case.

As to `O=C(Nc1ccc(F)cc1)c1cc2sc(NC3CCN(Cc4ccc(F)cc4)CC3)nc2s1` [Compound 314], the MIC50 in assay [1] and in assay [2] was < 1 µM throughout.

For the compound `COc1ccc(NC(=O)c2cc3nc(N4CCOCC4)sc3s2)cc1` [Compound 27], the MIC50 is > 20 µM in assay [1] and 1 to 20 µM (≈ 0.375 to 7.51 µg/mL) in assay [2].

Turning to `COc1ccc(NC(=O)c2cc3sc(N4CCC(C(=O)O)CC4)nc3s2)cc1` [Compound 149], the MIC50 in assay [1] and in assay [2] was 1 to 20 µM (≈ 0.418 to 8.35 µg/mL) in each case.

In the case of `COCCN(C)c1nc2sc(C(=O)Nc3ccc(-c4ccc(OC)nc4)cc3)cc2s1` [Compound 265], the MIC50 in assay [1] and in assay [2] was < 1 µM each time.

For the compound `COCCN(C)c1nc2sc(C(=O)Nc3ccc4oc(C)nc4c3)cc2s1` [Compound 202], the MIC50 in assay [1] and in assay [2] was < 1 µM throughout.

Turning to `O=C(Nc1ccc(N2CCC(Oc3ccc(F)cc3)CC2)cc1)c1cc2sc(N3CCOCC3)nc2s1` [Compound 220], the results for the MIC50 in assay [1] and in assay [2] were > 20 µM and < 1 µM, respectively.
